# Assay results taken from PubChem BioAssay AID1845198 (Molecular Pharmacology Branch, DTP, NCI, 2023).
# Test system: 425362-245-T-J1 tumor spheroids, viability % test/control
# Assay: Anticancer human tumor 425362-245-T-J1 patient-derived melanoma cell line growth inhibition
# Conditions: spheroids with HUVEC and MSC; for IC50: curve of first compound; for viability, T/C: stronger effect = lower value
# In short: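 Complex tumor spheroids combined malignant cells with endothelial cells and mesenchymal stem cells. DNA-damaging drugs and DNA repair inhibitors were tested alone and in combination, at half-log dilutions down from clinical Cmax (top 10 microM if Cmax unknown), 0.25% DMSO final.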
# [1] = second compound 1 µM, first compound 0.0316 µM
# [2] = second compound 1 µM, first compound 0.1 µM
# [3] = second compound 1 µM, first compound 0.316 µM
# [4] = second compound 1 µM, first compound 1 µM
# [5] = second compound 1 µM, first compound 3.16 µM
# [6] = second compound 1 µM, first compound 10 µM
# [7] = second compound 3.16 µM, first compound 0.0316 µM
# [8] = second compound 3.16 µM, first compound 0.1 µM
# [9] = second compound 3.16 µM, first compound 0.316 µM
# [10] = second compound 3.16 µM, first compound 1 µM
# [11] = second compound 3.16 µM, first compound 3.16 µM
# [12] = second compound 3.16 µM, first compound 10 µM
# [13] = second compound 10 µM, first compound 0.0316 µM
# [14] = second compound 10 µM, first compound 0.1 µM
# [15] = second compound 10 µM, first compound 0.316 µM
# [16] = second compound 10 µM, first compound 1 µM
# [17] = second compound 10 µM, first compound 3.16 µM
# [18] = second compound 10 µM, first compound 10 µM
# [19] = second compound 31.6 µM, first compound 0.0316 µM
# [20] = second compound 31.6 µM, first compound 0.1 µM
# [21] = second compound 31.6 µM, first compound 0.316 µM
# [22] = second compound 31.6 µM, first compound 1 µM
# [23] = second compound 31.6 µM, first compound 3.16 µM
# [24] = second compound 31.6 µM, first compound 10 µM
# [25] = second compound 100 µM, first compound 0.0316 µM
# [26] = second compound 100 µM, first compound 0.1 µM
# [27] = second compound 100 µM, first compound 0.316 µM
# [28] = second compound 100 µM, first compound 1 µM
# [29] = second compound 100 µM, first compound 3.16 µM
# [30] = second compound 100 µM, first compound 10 µM
# 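Note: spheroids exposed to agents for 7 days.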
Compound,IC50 (second compound 1 µM) [nM],IC50 (second compound 3.16 µM) [nM],IC50 (second compound 10 µM) [nM],IC50 (second compound 31.6 µM) [nM],IC50 (second compound 100 µM) [nM],"viability, T/C [1] [%]","viability, T/C [2] [%]","viability, T/C [3] [%]","viability, T/C [4] [%]","viability, T/C [5] [%]","viability, T/C [6] [%]","viability, T/C [7] [%]","viability, T/C [8] [%]","viability, T/C [9] [%]","viability, T/C [10] [%]","viability, T/C [11] [%]","viability, T/C [12] [%]","viability, T/C [13] [%]","viability, T/C [14] [%]","viability, T/C [15] [%]",also measured
CC(C)n1c(=O)n(C)c2cnc3cc(F)c(-c4ccc(OCCCN5CCCCC5)nc4)cc3c21 + Cn1nnc2c(C(N)=O)ncn2c1=O,124,225,266,141,< 31.6,57.7,55.8,36.1,20.8,13.7,5.19,77.4,67,43,20.6,19.5,6.63,74.2,72,45.1,"viability, T/C [16]: 21.4%; viability, T/C [17]: 18.9%; viability, T/C [18]: 5.99%; viability, T/C [19]: 67.8%; viability, T/C [20]: 58.5%; viability, T/C [21]: 32.8%; viability, T/C [22]: 19.8%; viability, T/C [23]: 14.5%; viability, T/C [24]: 6.37%; viability, T/C [25]: 45.8%; viability, T/C [26]: 23.7%; viability, T/C [27]: 17.5%; viability, T/C [28]: 12.1%; viability, T/C [29]: 8.75%; viability, T/C [30]: 5.3%"
CC1COCCN1c1cc(-c2ccnn2C)c2ccnc(-c3ccn[nH]3)c2n1 (stereo not given) + Cn1nnc2c(C(N)=O)ncn2c1=O,< 31.6,< 31.6,< 31.6,< 31.6,< 31.6,34,9.93,9.37,7.42,8.52,7.26,46,13.1,8.7,8.72,9.76,9.55,33.1,12.4,6.43,"viability, T/C [16]: 8.73%; viability, T/C [17]: 8.17%; viability, T/C [18]: 7.97%; viability, T/C [19]: 41.4%; viability, T/C [20]: 10.8%; viability, T/C [21]: 8%; viability, T/C [22]: 8.25%; viability, T/C [23]: 8.57%; viability, T/C [24]: 9.27%; viability, T/C [25]: 16%; viability, T/C [26]: 8.9%; viability, T/C [27]: 6.62%; viability, T/C [28]: 5.43%; viability, T/C [29]: 8.9%; viability, T/C [30]: 6.85%"
COc1ccc([C@@H](O)c2cc(-c3ncnc4cc(N5CCOCC5)ccc34)c(F)cc2Cl)nn1 + Cn1nnc2c(C(N)=O)ncn2c1=O,2300,2570,2500,2670,2100,91,95.6,87.5,70.2,42.5,19.1,101,111,104,76.2,45.7,20.3,111,117,113,"viability, T/C [16]: 74.8%; viability, T/C [17]: 46.6%; viability, T/C [18]: 22.2%; viability, T/C [19]: 110%; viability, T/C [20]: 109%; viability, T/C [21]: 94%; viability, T/C [22]: 78.9%; viability, T/C [23]: 44%; viability, T/C [24]: 20.8%; viability, T/C [25]: 101%; viability, T/C [26]: 84.7%; viability, T/C [27]: 82.2%; viability, T/C [28]: 65.1%; viability, T/C [29]: 40.3%; viability, T/C [30]: 20.5%"
